Measured values taken from PubChem BioAssay (NCI).
“And” between values parts separate entries of the source, which are not always exact repeats. Equal entries are not always repeated.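 Five compound concentrations were applied to cells in 96-well plates for 48 hours; endpoints were derived by simple linear interpolation of the resulting dose-response curve. The concentration for 50% growth inhibition is given as GI50. TGI is the concentration that stops growth completely.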

Key:
Assay in all cases: NCI tumour cell line growth inhibition, 48 h
SW-620 colon = system: SW-620 colon
RPMI-8226 leukemia = system: RPMI-8226 leukemia
COLO 205 colon = system: COLO 205 colon
HT29 colon = system: HT29 colon
SF-268 CNS = system: SF-268 CNS
SK-MEL-2 melanoma = system: SK-MEL-2 melanoma
NCI/ADR-RES ovarian = system: NCI/ADR-RES ovarian
MALME-3M melanoma = system: MALME-3M melanoma
LOX IMVI melanoma = system: LOX IMVI melanoma
KM12 colon = system: KM12 colon

SMILES | GI50 (SW-620 colon) [µM] | TGI (SW-620 colon) | GI50 (RPMI-8226 leukemia) [µM] | TGI (RPMI-8226 leukemia) [µM] | GI50 (COLO 205 colon) [µM] | TGI (COLO 205 colon) | GI50 (HT29 colon) [µM] | TGI (HT29 colon) [µM] | GI50 (SF-268 CNS) [µM] | TGI (SF-268 CNS) [µM] | GI50 (SK-MEL-2 melanoma) [µM] | TGI (SK-MEL-2 melanoma) | GI50 (NCI/ADR-RES ovarian) [µM] | TGI (NCI/ADR-RES ovarian) [µM] | GI50 (MALME-3M melanoma) [µM] | TGI (MALME-3M melanoma) | TGI (LOX IMVI melanoma) | TGI (KM12 colon) | GI50 (LOX IMVI melanoma) [µM] | GI50 (KM12 colon) [µM]
CO/N=C(/C)c1cccc(Nc2cc(-c3ccccc3)nc3ccc(OC)cc23)c1 | 4.74 | 29.6 µM | 3.12 | 8.28 | 33.1 | 97.8 µM | 34.1 | > 100 | 3.64 | 14.1 | 50.3 | > 100 µM | 4.7 | 24 | 2.45 | 7.78 µM |  |  |  | 
CC(=O)OCCOCNC(=S)N/N=C/c1ccc(Br)s1 |  | > 100 µM |  | > 100 |  | > 100 µM |  | > 100 |  | > 100 |  | > 100 µM |  |  |  | > 100 µM | > 100 µM | > 100 µM |  | 
O=C(OCC(OC(=O)c1ccccc1)C(OC(=O)c1ccccc1)C(OC(=O)c1ccccc1)c1cnn(-c2ccccc2)n1)c1ccccc1 (stereo not given) |  | > 100 µM |  | > 100 |  | > 100 µM |  | > 100 |  | > 100 |  |  |  | > 100 |  | > 100 µM | > 100 µM | > 100 µM |  | 
CCOc1ccccc1NC(=O)C(C#N)C1=C(Cl)C(=O)c2ccccc2C1=O (stereo not given) | 2.81 | 3.45 µM and 6.68 µM | 3.34 |  | 12.6 | 3.43 µM and 27.9 µM | 14 |  |  | 4.79 |  | 3.05 µM and 3.12 µM |  |  |  | 2.91 µM and 3.08 µM | 2.08 µM and 3.28 µM | 3.23 µM and 4.59 µM | 1.38 | 2.13
C/C(CCn1[nH]c(=O)ccc1=O)=N\OCCCc1ccccc1 |  | > 100 µM |  | > 100 |  |  |  | > 100 |  | > 100 |  | > 100 µM |  |  |  | > 100 µM | > 100 µM | > 100 µM |  | 
S=C1CC(c2ccccc2)Sc2ccc(Cl)cc2N1 (stereo not given) |  |  |  | > 100 |  | > 100 µM |  | > 100 |  | > 100 |  |  |  | > 100 |  | > 100 µM | > 100 µM | > 100 µM |  | 
O=S1(=O)OCCOS(=O)(=O)C1Cl |  | > 100 µM |  | > 100 |  | > 100 µM |  | > 100 |  | > 100 |  | > 100 µM |  |  |  | > 100 µM |  | > 100 µM |  | 
N#CC(C(=O)CCC(=O)Nc1cccc(C(F)(F)F)c1)c1ccc(Cl)cc1 (stereo not given) |  | > 100 µM |  | > 100 |  | > 100 µM |  | > 100 |  | > 100 |  |  |  |  |  | > 100 µM | > 100 µM | > 100 µM |  | 
c1ccc(CSc2nc3ccccc3nc2-c2cccs2)cc1 |  |  |  | > 100 |  | > 100 µM |  | > 100 |  | > 100 |  | > 100 µM |  |  |  | > 100 µM |  | > 100 µM |  | 
Cc1ccc(S(=O)(=O)NC(=O)NC2=NC(C)(C)N(c3ccc(Cl)c(Cl)c3)C(N)=N2)cc1 |  | > 100 µM |  |  |  | > 100 µM |  | > 100 |  | > 100 |  | > 100 µM |  | > 100 |  | > 100 µM |  | > 100 µM |  | 
COC(=O)CCC1=C(CC(=O)OC)C(C)=N/C1=C\c1[nH]c(-c2ccc[nH]2)cc1OC | 3.63 | 18 µM | 1.44 | 4.91 | 3.79 | 16.3 µM | 0.557 | 10.3 | 5.95 | 21.3 |  |  | 4.06 | 16.9 | 6.8 | 23.3 µM | 3.11 µM | 15 µM | 0.788 | 2.67
CCN(CC)c1cc2oc3cc(N)cc(=N)c-3nc2cc1C | 2.75 | 19.5 µM | 1.03 | 23.7 | 1.9 | 3.95 µM | 3.49 | 15.6 | 3.26 | 18.2 | 2.01 | 4.69 µM | 2.29 | > 100 | 2.16 | 6.08 µM |  | 29.8 µM |  | 3.93
CC(C)(C)OC(=O)N1N=NC2C1C1CC(OCc3ccccc3)(OCc3ccccc3)C2O1 (stereo not given) |  | 47.6 µM |  | 63.6 |  | > 100 µM |  | > 100 |  | > 100 |  | > 100 µM |  |  |  | > 100 µM | 33.7 µM | > 100 µM |  | 
Oc1ccc(Br)cc1C=Nc1ccc(N=Cc2cc(Br)ccc2O)cc1 |  | > 100 µM |  | > 100 |  |  |  | > 100 |  | > 100 |  | > 100 µM |  |  |  | > 100 µM | > 100 µM | > 100 µM |  | 
O=C(O)CN(c1ccccc1)S(=O)(=O)c1ccc([N+](=O)[O-])cc1 |  | > 100 µM |  | > 100 |  | > 100 µM |  | > 100 |  |  |  | > 100 µM |  |  |  | > 100 µM | > 100 µM | > 100 µM |  | 
Cc1cc(C(C)(C)C)cc(Cc2cc(C(C)(C)C)cc(Cc3cc(C(C)(C)C)cc(C)c3O)c2O)c1O |  | 17.4 µM |  | 6.44 |  | 29.7 µM |  | 24 |  | 12.2 |  | 22.3 µM |  |  |  | 22.5 µM | 21 µM | 21.4 µM |  | 
O=C1CSC(c2ccc(-c3nc4ccccc4s3)cc2)=N1 | 50.5 | > 100 µM | 23.2 | 52.6 | > 100 | > 100 µM |  |  |  |  | 40.9 | > 100 µM | 50.5 | > 100 |  |  | 26.9 µM | 13.8 µM | 7.48 | 3.11
O=c1c2ccccc2nc(-c2ccccc2)n1NC(=S)Nc1ccccc1 |  | > 100 µM |  | > 100 |  | > 100 µM |  | > 100 |  | > 100 |  | > 100 µM |  |  |  | > 100 µM | > 100 µM | > 100 µM |  | 
N#Cc1ccc(OC(=O)Nc2ccc(Cl)c(Cl)c2)cc1 | 3.31 | > 100 µM | 2.43 | 6.77 | 3.79 | 11.4 µM | 3.35 | 28.6 | 5.27 | > 100 | 4.13 | 18 µM | 3.79 | > 100 | 3.81 | 20.6 µM |  | 12.8 µM |  | 3.27
